Measured values from patent US10597388B2, “Pyridazinone herbicides” (FMC CORPORATION, priority 2014, dated 2020).

How the values were obtained:
Assay in all cases: Test C greenhouse herbicide test, pre- and postemergence
Format in all cases: in vivo
[1] = tested on: crabgrass, large (large crabgrass, Digitaria sanguinalis)
Procedure, shortened: (§1)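 Two application timings: at sowing into a soil/sand blend, and on 2–18 cm seedlings in peat-vermiculite potting mix. A non-phytotoxic, surfactant-containing solvent carried the compounds. Plants were compared with controls and rated visually on 0–100 after 13–15 d.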

[2] = tested on: johnsongrass (Sorghum halepense)
Procedure, shortened: as §1

[3] = tested on: oilseed rape (Brassica napus)
Procedure, shortened: as §1

[4] = tested on: waterhemp (common waterhemp, Amaranthus rudis)
Procedure, shortened: as §1

[5] = tested on: ragweed (common ragweed, Ambrosia elatior)
Procedure, shortened: as §1

[6] = tested on: nutsedge, yellow (yellow nutsedge, Cyperus esculentus)
Procedure, shortened: as §1

[7] = tested on: barnyardgrass (Echinochloa crus-galli)
Procedure, shortened: as §1

soybean (Glycine max) = tested on: soybean (Glycine max)
Procedure, shortened: as §1

[8] = tested on: wheat (winter wheat, Triticum aestivum)
Procedure, shortened: as §1

[9] = tested on: foxtail, giant (giant foxtail, Setaria faberii)
Procedure, shortened: as §1

[10] = tested on: lambsquarters (Chenopodium album)
Procedure, shortened: as §1

[11] = tested on: galium (catchweed bedstraw, Galium aparine)
Procedure, shortened: as §1

[12] = Postemergence, 125 g ai/ha, scale 0 to 100, 0 is no effect, 100 is complete control
[13] = Postemergence, 250 g ai/ha, scale 0 to 100, 0 no effect, 100 complete control, 13 to 15 d
[14] = Preemergence, 31 g ai/ha, scale 0 to 100, 0 is no effect, 100 is complete control
[15] = Preemergence, 62 g ai/ha, scale 0 to 100, 0 is no effect, 100 is complete control
[16] = Preemergence, 125 g ai/ha, scale 0 to 100, 0 is no effect, 100 is complete control
[17] = Preemergence, 250 g ai/ha, scale 0 to 100, 0 no effect, 100 complete control
[18] = postemergence, 62 g ai/ha, scale 0 to 100, 0 no effect, 100 complete control
[19] = Postemergence, 31 g ai/ha, 0 to 100 scale (0 no effect, 100 complete control)

COC(=O)Oc1cnn(C)c(=O)c1-c1c(C)sc2ccccc12 [Compound 97]
Plant response rating, Crabgrass, Large [1, 12]: 10
Plant response rating, Crabgrass, Large [1, 13]: 25
Plant response rating, Crabgrass, Large [1, 14]: 0
Plant response rating, Crabgrass, Large [1, 15]: 0
Plant response rating, Crabgrass, Large [1, 16]: 0
Crabgrass, Large plant response rating [1, 17]: 60
Crabgrass, Large plant response rating [1, 18]: 5
Plant response rating, Johnsongrass [2, 12]: 0
Plant response rating, Johnsongrass [2, 13]: 5
Plant response rating, Johnsongrass [2, 14]: 0
Plant response rating, Johnsongrass [2, 15]: 0
Plant response rating, Johnsongrass [2, 16]: 0
Johnsongrass plant response rating [2, 17]: 0
Johnsongrass plant response rating [2, 18]: 0
Plant response rating, Oilseed Rape [3, 12]: 0
Plant response rating, Oilseed Rape [3, 13]: 35
Plant response rating, Oilseed Rape [3, 14]: 0
Plant response rating, Oilseed Rape [3, 15]: 0
Plant response rating, Oilseed Rape [3, 16]: 0
Oilseed Rape plant response rating [3, 17]: 0
Oilseed Rape plant response rating [3, 18]: 0
Plant response rating, Waterhemp [4, 12]: 5
Plant response rating, Waterhemp [4, 13]: 10
Plant response rating, Waterhemp [4, 14]: 0
Plant response rating, Waterhemp [4, 15]: 10
Plant response rating, Waterhemp [4, 16]: 10
Waterhemp plant response rating [4, 17]: 20
Waterhemp plant response rating [4, 18]: 5
Plant response rating, Ragweed [5, 12]: 25
Plant response rating, Ragweed [5, 13]: 35
Plant response rating, Ragweed [5, 14]: 0
Plant response rating, Ragweed [5, 15]: 0
Plant response rating, Ragweed [5, 16]: 0
Ragweed plant response rating [5, 17]: 10
Ragweed plant response rating [5, 18]: 10
Plant response rating, Nutsedge, Yellow [6, 12]: 0
Plant response rating, Nutsedge, Yellow [6, 13]: 5
Plant response rating, Nutsedge, Yellow [6, 14]: 0
Plant response rating, Nutsedge, Yellow [6, 15]: 0
Plant response rating, Nutsedge, Yellow [6, 16]: 0
Nutsedge, Yellow plant response rating [6, 17]: 0
Nutsedge, Yellow plant response rating [6, 18]: 0
Barnyardgrass plant response rating [7, 19]: 0
Plant response rating, Barnyardgrass [7, 12]: 15
Plant response rating, Barnyardgrass [7, 13]: 35
Plant response rating, Barnyardgrass [7, 14]: 0
Plant response rating, Barnyardgrass [7, 15]: 0
Plant response rating, Barnyardgrass [7, 16]: 0
Barnyardgrass plant response rating [7, 17]: 35
Barnyardgrass plant response rating [7, 18]: 5
Plant response rating, Soybean (soybean (Glycine max); [12]): 5
Plant response rating, Soybean (soybean (Glycine max); [13]): 5
Plant response rating, Soybean (soybean (Glycine max); [14]): 15
Plant response rating, Soybean (soybean (Glycine max); [15]): 10
Plant response rating, Soybean (soybean (Glycine max); [16]): 10
Soybean plant response rating (soybean (Glycine max); [17]): 20
Soybean plant response rating (soybean (Glycine max); [18]): 0
Plant response rating, Wheat [8, 12]: 0
Plant response rating, Wheat [8, 13]: 0
Plant response rating, Wheat [8, 14]: 0
Plant response rating, Wheat [8, 15]: 0
Plant response rating, Wheat [8, 16]: 0
Wheat plant response rating [8, 17]: 0
Wheat plant response rating [8, 18]: 0
Plant response rating, Foxtail, Giant [9, 12]: 5
Plant response rating, Foxtail, Giant [9, 13]: 5
Plant response rating, Foxtail, Giant [9, 14]: 0
Plant response rating, Foxtail, Giant [9, 15]: 5
Plant response rating, Foxtail, Giant [9, 16]: 5
Foxtail, Giant plant response rating [9, 17]: 55
Foxtail, Giant plant response rating [9, 18]: 5
Plant response rating, Lambsquarters [10, 12]: 50
Plant response rating, Lambsquarters [10, 13]: 60
Plant response rating, Lambsquarters [10, 14]: 0
Plant response rating, Lambsquarters [10, 15]: 0
Plant response rating, Lambsquarters [10, 16]: 20
Lambsquarters plant response rating [10, 17]: 25
Lambsquarters plant response rating [10, 18]: 20
Plant response rating, Galium [11, 12]: 85
Plant response rating, Galium [11, 13]: 90
Plant response rating, Galium [11, 14]: 0
Plant response rating, Galium [11, 15]: 0
Plant response rating, Galium [11, 16]: 0
Galium plant response rating [11, 17]: 90
Galium plant response rating [11, 18]: 80

CC(=O)Oc1c(C)nn(C)c(=O)c1-c1c(C)cc(C)c2ccccc12 [Compound 99]
Plant response rating, Crabgrass, Large [1, 12]: 30
Plant response rating, Crabgrass, Large [1, 13]: 50
Plant response rating, Crabgrass, Large [1, 14]: 30
Plant response rating, Crabgrass, Large [1, 15]: 35
Plant response rating, Crabgrass, Large [1, 16]: 60
Crabgrass, Large plant response rating [1, 17]: 80
Crabgrass, Large plant response rating [1, 18]: 20
Plant response rating, Johnsongrass [2, 12]: 10
Plant response rating, Johnsongrass [2, 13]: 5
Plant response rating, Johnsongrass [2, 14]: 0
Plant response rating, Johnsongrass [2, 15]: 0
Plant response rating, Johnsongrass [2, 16]: 0
Johnsongrass plant response rating [2, 17]: 20
Johnsongrass plant response rating [2, 18]: 10
Plant response rating, Oilseed Rape [3, 12]: 60
Plant response rating, Oilseed Rape [3, 13]: 55
Plant response rating, Oilseed Rape [3, 14]: 0
Plant response rating, Oilseed Rape [3, 15]: 40
Plant response rating, Oilseed Rape [3, 16]: 90
Oilseed Rape plant response rating [3, 17]: 98
Oilseed Rape plant response rating [3, 18]: 5
Plant response rating, Waterhemp [4, 12]: 95
Plant response rating, Waterhemp [4, 13]: 98
Plant response rating, Waterhemp [4, 14]: 85
Plant response rating, Waterhemp [4, 15]: 100
Plant response rating, Waterhemp [4, 16]: 98
Waterhemp plant response rating [4, 17]: 100
Waterhemp plant response rating [4, 18]: 75
Plant response rating, Ragweed [5, 12]: 95
Plant response rating, Ragweed [5, 13]: 100
Plant response rating, Ragweed [5, 14]: 70
Plant response rating, Ragweed [5, 15]: 90
Plant response rating, Ragweed [5, 16]: 95
Ragweed plant response rating [5, 17]: 95
Ragweed plant response rating [5, 18]: 90
Plant response rating, Nutsedge, Yellow [6, 12]: 75
Plant response rating, Nutsedge, Yellow [6, 13]: 85
Plant response rating, Nutsedge, Yellow [6, 14]: 20
Plant response rating, Nutsedge, Yellow [6, 15]: 70
Plant response rating, Nutsedge, Yellow [6, 16]: 60
Nutsedge, Yellow plant response rating [6, 17]: 90
Nutsedge, Yellow plant response rating [6, 18]: 55
Barnyardgrass plant response rating [7, 19]: 25
Plant response rating, Barnyardgrass [7, 12]: 35
Plant response rating, Barnyardgrass [7, 13]: 35
Plant response rating, Barnyardgrass [7, 14]: 5
Plant response rating, Barnyardgrass [7, 15]: 15
Plant response rating, Barnyardgrass [7, 16]: 55
Barnyardgrass plant response rating [7, 17]: 85
Barnyardgrass plant response rating [7, 18]: 25
Plant response rating, Soybean (soybean (Glycine max); [12]): 5
Plant response rating, Soybean (soybean (Glycine max); [13]): 5
Plant response rating, Soybean (soybean (Glycine max); [14]): 0
Plant response rating, Soybean (soybean (Glycine max); [15]): 0
Plant response rating, Soybean (soybean (Glycine max); [16]): 5
Soybean plant response rating (soybean (Glycine max); [17]): 20
Soybean plant response rating (soybean (Glycine max); [18]): 5
Plant response rating, Wheat [8, 12]: 10
Plant response rating, Wheat [8, 13]: 10
Plant response rating, Wheat [8, 14]: 0
Plant response rating, Wheat [8, 15]: 0
Plant response rating, Wheat [8, 16]: 30
Wheat plant response rating [8, 17]: 65
Wheat plant response rating [8, 18]: 0
Plant response rating, Foxtail, Giant [9, 12]: 30
Plant response rating, Foxtail, Giant [9, 13]: 50
Plant response rating, Foxtail, Giant [9, 14]: 40
Plant response rating, Foxtail, Giant [9, 15]: 35
Plant response rating, Foxtail, Giant [9, 16]: 65
Foxtail, Giant plant response rating [9, 17]: 90
Foxtail, Giant plant response rating [9, 18]: 15
Plant response rating, Lambsquarters [10, 12]: 85
Plant response rating, Lambsquarters [10, 13]: 98
Plant response rating, Lambsquarters [10, 14]: 25
Plant response rating, Lambsquarters [10, 15]: 80
Plant response rating, Lambsquarters [10, 16]: 100
Lambsquarters plant response rating [10, 17]: 95
Lambsquarters plant response rating [10, 18]: 75
Plant response rating, Galium [11, 12]: 98
Plant response rating, Galium [11, 13]: 98
Plant response rating, Galium [11, 16]: 98
Galium plant response rating [11, 17]: 98
Galium plant response rating [11, 18]: 95
